In ChEMBL document CHEMBL4138123, “Design, synthesis and biological evaluation of novel pyrazolochalcones as potential modulators of PI3K/Akt/mTOR pathway and inducers of apoptosis in breast cancer cells” (Eur J Med Chem, 2017):

Tests used:
Assay type in all cases: functional
SF-295 [1] = experiment: Cytotoxicity against human SF295 cells assessed as growth inhibition after 48 hrs by sulforhodamine B assay; conditions: SF-295, 48 h
SNB-75 [2] = experiment: Cytotoxicity against human SNB75 cells assessed as growth inhibition after 48 hrs by sulforhodamine B assay; conditions: SNB-75, 48 h
HOP-92 [3] = experiment: Cytotoxicity against human HOP92 cells assessed as growth inhibition after 48 hrs by sulforhodamine B assay; conditions: HOP-92, 48 h; for CC50: read-out: LC50 (the source's name)
LOX IMVI [4] = experiment: Cytotoxicity against human LOXIMVI cells assessed as cell growth at 100 uM after 48 hrs by sulforhodamine B assay relative to control; conditions: read-out: Activity
SK-MEL-2 [5] = experiment: Cytotoxicity against human SK-MEL-2 cells assessed as cell growth at 100 uM after 48 hrs by sulforhodamine B assay relative to control; conditions: SK-MEL-2, 48 h, read-out: Activity
SF-295 [6] = experiment: Cytotoxicity against human SF295 cells assessed as cell growth at 0.01 uM after 48 hrs by sulforhodamine B assay relative to control; conditions: SF-295, 48 h, read-out: Activity
SF-295 [7] = experiment: Cytotoxicity against human SF295 cells assessed as cell growth at 100 uM after 48 hrs by sulforhodamine B assay relative to control; conditions: SF-295, 48 h, read-out: Activity
HOP-92 [8] = experiment: Cytotoxicity against human HOP92 cells assessed as cell growth at 0.01 uM after 48 hrs by sulforhodamine B assay relative to control; conditions: HOP-92, 48 h, read-out: Activity
SF-295 [9] = experiment: Cytotoxicity against human SF295 cells assessed as cell growth at 1 uM after 48 hrs by sulforhodamine B assay relative to control; conditions: SF-295, 48 h, read-out: Activity
LOX IMVI [10] = experiment: Cytotoxicity against human LOXIMVI cells assessed as cell growth at 1 uM after 48 hrs by sulforhodamine B assay relative to control; conditions: read-out: Activity
SF-295 [11] = experiment: Cytotoxicity against human SF295 cells assessed as cell growth at 10 uM after 48 hrs by sulforhodamine B assay relative to control; conditions: SF-295, 48 h, read-out: Activity
SK-MEL-2 [12] = experiment: Cytotoxicity against human SK-MEL-2 cells assessed as cell growth at 1 uM after 48 hrs by sulforhodamine B assay relative to control; conditions: SK-MEL-2, 48 h, read-out: Activity
SK-MEL-2 [13] = experiment: Cytotoxicity against human SK-MEL-2 cells assessed as cell growth at 0.1 uM after 48 hrs by sulforhodamine B assay relative to control; conditions: SK-MEL-2, 48 h, read-out: Activity
HOP-92 [14] = experiment: Cytotoxicity against human HOP92 cells assessed as cell growth at 100 uM after 48 hrs by sulforhodamine B assay relative to control; conditions: HOP-92, 48 h, read-out: Activity
HOP-92 [15] = experiment: Cytotoxicity against human HOP92 cells assessed as cell growth at 0.1 uM after 48 hrs by sulforhodamine B assay relative to control; conditions: HOP-92, 48 h, read-out: Activity
LOX IMVI [16] = experiment: Cytotoxicity against human LOXIMVI cells assessed as cell growth at 0.01 uM after 48 hrs by sulforhodamine B assay relative to control; conditions: read-out: Activity
HOP-92 [17] = experiment: Cytotoxicity against human HOP92 cells assessed as cell growth at 1 uM after 48 hrs by sulforhodamine B assay relative to control; conditions: HOP-92, 48 h, read-out: Activity
HOP-92 [18] = experiment: Cytotoxicity against human HOP92 cells assessed as cell growth at 10 uM after 48 hrs by sulforhodamine B assay relative to control; conditions: HOP-92, 48 h, read-out: Activity
LOX IMVI [19] = experiment: Cytotoxicity against human LOXIMVI cells assessed as cell growth at 0.1 uM after 48 hrs by sulforhodamine B assay relative to control; conditions: read-out: Activity
SK-MEL-2 [20] = experiment: Cytotoxicity against human SK-MEL-2 cells assessed as cell growth at 0.01 uM after 48 hrs by sulforhodamine B assay relative to control; conditions: SK-MEL-2, 48 h, read-out: Activity
SK-MEL-2 [21] = experiment: Cytotoxicity against human SK-MEL-2 cells assessed as cell growth at 10 uM after 48 hrs by sulforhodamine B assay relative to control; conditions: SK-MEL-2, 48 h, read-out: Activity
LOX IMVI [22] = experiment: Cytotoxicity against human LOXIMVI cells assessed as cell growth at 10 uM after 48 hrs by sulforhodamine B assay relative to control; conditions: read-out: Activity
SF-295 [23] = experiment: Cytotoxicity against human SF295 cells assessed as cell growth at 0.1 uM after 48 hrs by sulforhodamine B assay relative to control; conditions: SF-295, 48 h, read-out: Activity
SNB-75 [24] = experiment: Cytotoxicity against human SNB75 cells assessed as cell growth at 0.1 uM after 48 hrs by sulforhodamine B assay relative to control; conditions: SNB-75, 48 h, read-out: Activity
SNB-75 [25] = experiment: Cytotoxicity against human SNB75 cells assessed as cell growth at 10 uM after 48 hrs by sulforhodamine B assay relative to control; conditions: SNB-75, 48 h, read-out: Activity
SNB-75 [26] = experiment: Cytotoxicity against human SNB75 cells assessed as cell growth at 100 uM after 48 hrs by sulforhodamine B assay relative to control; conditions: SNB-75, 48 h, read-out: Activity
SNB-75 [27] = experiment: Cytotoxicity against human SNB75 cells assessed as cell growth at 0.01 uM after 48 hrs by sulforhodamine B assay relative to control; conditions: SNB-75, 48 h, read-out: Activity
SNB-75 [28] = experiment: Cytotoxicity against human SNB75 cells assessed as cell growth at 1 uM after 48 hrs by sulforhodamine B assay relative to control; conditions: SNB-75, 48 h, read-out: Activity
CAKI-1 [29] = experiment: Cytotoxicity against human Caki1 cells assessed as cell growth at 10 uM after 48 hrs by sulforhodamine B assay relative to control; conditions: CAKI-1, 48 h, read-out: Activity
CAKI-1 [30] = experiment: Cytotoxicity against human Caki1 cells assessed as cell growth at 1 uM after 48 hrs by sulforhodamine B assay relative to control; conditions: CAKI-1, 48 h, read-out: Activity
CAKI-1 [31] = experiment: Cytotoxicity against human Caki1 cells assessed as cell growth at 0.01 uM after 48 hrs by sulforhodamine B assay relative to control; conditions: CAKI-1, 48 h, read-out: Activity
CAKI-1 [32] = experiment: Cytotoxicity against human Caki1 cells assessed as growth inhibition after 48 hrs by sulforhodamine B assay; conditions: CAKI-1, 48 h
CAKI-1 [33] = experiment: Cytotoxicity against human Caki1 cells assessed as cell growth at 100 uM after 48 hrs by sulforhodamine B assay relative to control; conditions: CAKI-1, 48 h, read-out: Activity

SMILES | GI50 (SF-295 [1]) | GI50 (SNB-75 [2]) | GI50 (HOP-92 [3]) | growth at 100 µM (LOX IMVI [4]) | growth at 100 µM (SK-MEL-2 [5]) | growth at 0.01 µM (SF-295 [6]) | growth at 100 µM (SF-295 [7]) | growth at 0.01 µM (HOP-92 [8]) | growth at 1 µM (SF-295 [9]) | growth at 1 µM (LOX IMVI [10]) | LC50 (SF-295 [1]) | TGI (SF-295 [1]) | growth at 10 µM (SF-295 [11]) | growth at 0.1 µM (SF-295 [23]) | growth at 0.1 µM (SNB-75 [24]) | TGI (SNB-75 [2]) | growth at 10 µM (SNB-75 [25]) | growth at 100 µM (SNB-75 [26]) | growth at 0.01 µM (SNB-75 [27]) | growth at 1 µM (SNB-75 [28]) | other results
COc1ccc(-c2cc(/C=C/C(=O)c3ccc4c(c3)OCO4)[nH]n2)cc1OC | 1.6 µM | 1.16 µM | 1.97 µM |  |  |  |  |  |  |  |  |  |  |  |  |  |  |  |  |  | 
COc1cc(-c2cc(/C=C/C(=O)c3ccc(N)cc3)[nH]n2)cc(OC)c1OC | 2.55 µM |  | 3.68 µM | -82% | -85% | 88% | -95% | 88% | 82% | 83% | 34.8 µM | 10.9 µM | 4% | 89% |  |  |  |  |  |  | growth at 1 µM (SK-MEL-2 [12]): 104%; growth at 0.1 µM (SK-MEL-2 [13]): 111%; growth at 100 µM (HOP-92 [14]): -35%; growth at 0.1 µM (HOP-92 [15]): 82%; growth at 0.01 µM (LOX IMVI [16]): 98%; growth at 1 µM (HOP-92 [17]): 79%; growth at 10 µM (HOP-92 [18]): 28%; TGI (HOP-92 [3]): 27.6 µM; CC50 (HOP-92 [3]): > 100 µM; growth at 0.1 µM (LOX IMVI [19]): 99%; growth at 0.01 µM (SK-MEL-2 [20]): 106%; growth at 10 µM (SK-MEL-2 [21]): -15%; growth at 10 µM (LOX IMVI [22]): -78%
COc1ccc(C(=O)/C=C/c2cc(-c3ccc(OC)c(OC)c3)n[nH]2)cc1OC | 1.6 µM | 1.16 µM | 1.97 µM | -91% | -58% | 85% | -57% | 83% | 70% | 68% |  | 5.05 µM | -30% | 90% | 89% | 2.96 µM | -65% | -82% | 82% | 58% | growth at 1 µM (SK-MEL-2 [12]): 111%; growth at 0.1 µM (SK-MEL-2 [13]): 113%; growth at 100 µM (HOP-92 [14]): -15%; growth at 0.1 µM (HOP-92 [15]): 81%; growth at 0.01 µM (LOX IMVI [16]): 100%; growth at 1 µM (HOP-92 [17]): 74%; growth at 10 µM (HOP-92 [18]): -7%; TGI (HOP-92 [3]): 8.12 µM; CC50 (HOP-92 [3]): > 100 µM; growth at 0.1 µM (LOX IMVI [19]): 99%; growth at 0.01 µM (SK-MEL-2 [20]): 110%; growth at 10 µM (SK-MEL-2 [21]): -44%; growth at 10 µM (LOX IMVI [22]): -89%
COc1ccc(-c2cc(/C=C/C(=O)c3ccc(N)cc3)[nH]n2)cc1 | 3.09 µM | 2.25 µM |  |  |  | 93% | -76% |  | 88% |  | 49.6 µM | 13.1 µM | 10% | 95% | 88% | 11.4 µM | 6% | -96% | 85% | 74% | growth at 10 µM (CAKI-1 [29]): 3%; LC50 (concentration killing 50% of cells) (SNB-75 [2]): 35.3 µM; growth at 1 µM (CAKI-1 [30]): 56%; growth at 0.01 µM (CAKI-1 [31]): 95%; GI50 (CAKI-1 [32]): 1.32 µM; LC50 (CAKI-1 [32]): 64.3 µM; TGI (CAKI-1 [32]): 11.1 µM; growth at 100 µM (CAKI-1 [33]): -63%
COc1cc2c(cc1OC)C(=O)/C(=C/c1cc(-c3ccc4c(c3)OCO4)n[nH]1)C2 | 1.64 µM | 1.65 µM |  |  |  | 95% | -93% |  | 86% |  | 6.5 µM | 3.26 µM | -81% | 95% | 94% | 3.02 µM | -100% | -96% | 85% | 92% | growth at 10 µM (CAKI-1 [29]): -87%; LC50 (concentration killing 50% of cells) (SNB-75 [2]): 5.51 µM; growth at 1 µM (CAKI-1 [30]): 79%; growth at 0.01 µM (CAKI-1 [31]): 98%; GI50 (CAKI-1 [32]): 1.5 µM; LC50 (CAKI-1 [32]): 6 µM; TGI (CAKI-1 [32]): 3 µM; growth at 100 µM (CAKI-1 [33]): -81%
